{
  "source": "paper PMC12638379",
  "about": "“An innovative approach to development of new pyrazolylquinolin-2-one hybrids as dual EGFR and BRAF^V600E inhibitors” (Molecular Diversity, 2025)",
  "test_system": "NCI 60 cancer cell lines",
  "experiment": "NCI anticancer screening over a panel of 60 cancer cells, single concentration 10 µM",
  "format": "cell-based, human",
  "conditions": "Homo sapiens, read-out: % Growth Inhibition (GI %)",
  "method_in_brief": "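Run under the NCI Compound Evaluation Branch protocol, each compound was tested once at 10 µM. The panel comprised 60 cancer cell lines of diverse tissue origin, including leukemia, lung, colon, CNS, renal, ovarian, breast and prostate.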",
  "note": "Like-named read-outs stand apart in the source and are kept apart here.",
  "data": [
    {"smiles": "C/C(=N\\Nc1ccc(C(=O)O)cc1)c1cnn(-c2cc(=O)[nH]c3ccc(Br)cc23)c1C", "note": "[Compound 4j, (E)-4-(2-(1-(1-(6-bromo-2-oxo-1,2-dihydroquinolin-4-yl)-5-methyl-1H-pyrazol-4-yl)ethylidene)hydrazineyl)benzoic acid]", "values": [
      {"measurement": "inhibition at 10 µM", "setting": "786-0, Renal cancer 786-0, 10 μM", "result": "< 5", "unit": "%"},
      {"measurement": "inhibition at 10 µM", "setting": "A498, Renal cancer A498, 10 μM", "result": "< 5", "unit": "%"},
      {"measurement": "inhibition at 10 µM", "setting": "A549, Non-small cell lung cancer A549/ATCC, 10 μM", "result": "< 5", "unit": "%"},
      {"measurement": "inhibition at 10 µM", "setting": "ACHN, Renal cancer ACHN, 10 μM", "result": "< 5", "unit": "%"},
      {"measurement": "inhibition at 10 µM", "setting": "BT-549, Breast cancer BT-549, 10 μM", "result": "< 5", "unit": "%"},
      {"measurement": "inhibition at 10 µM", "setting": "CAKI-1, Renal cancer CAKI-1, 10 μM", "result": 14.7, "unit": "%"},
      {"measurement": "inhibition at 10 µM", "setting": "CCRF-CEM, Leukemia CCRF-CEM, 10 μM", "result": "< 5", "unit": "%"},
      {"measurement": "inhibition at 10 µM", "setting": "COLO 205, Colon cancer COLO 205, 10 μM", "result": "< 5", "unit": "%"},
      {"measurement": "inhibition at 10 µM", "setting": "DU-145, Prostate cancer DU-145, 10 μM", "result": "< 5", "unit": "%"},
      {"measurement": "inhibition at 10 µM", "setting": "EKVX, Non-small cell lung cancer EKVX, 10 μM", "result": 6.05, "unit": "%"},
      {"measurement": "inhibition at 10 µM", "setting": "HCC 2998, Colon cancer HCC-2998, 10 μM", "result": "< 5", "unit": "%"},
      {"measurement": "inhibition at 10 µM", "setting": "HCT-15, Colon cancer HCT-15, 10 μM", "result": "< 5", "unit": "%"},
      {"measurement": "inhibition at 10 µM", "setting": "HCT-116, Colon cancer HCT-116, 10 μM", "result": "< 5", "unit": "%"},
      {"measurement": "inhibition at 10 µM", "setting": "HL-60, Leukemia HL-60(TB), 10 μM", "result": 7.02, "unit": "%"},
      {"measurement": "inhibition at 10 µM", "setting": "HOP-62, Non-small cell lung cancer HOP-62, 10 μM", "result": 5.55, "unit": "%"},
      {"measurement": "inhibition at 10 µM", "setting": "HOP-92, Non-small cell lung cancer HOP-92, 10 μM", "result": "< 5", "unit": "%"},
      {"measurement": "inhibition at 10 µM", "setting": "HT-29, Colon cancer HT29, 10 μM", "result": "< 5", "unit": "%"},
      {"measurement": "inhibition at 10 µM", "setting": "Hs-578T, Breast cancer HS 578T, 10 μM", "result": 11.7, "unit": "%"},
      {"measurement": "inhibition at 10 µM", "setting": "IGROV-1, Ovarian cancer IGROV1, 10 μM", "result": "< 5", "unit": "%"},
      {"measurement": "inhibition at 10 µM", "setting": "K562, Leukemia K-562, 10 μM", "result": "< 5", "unit": "%"},
      {"measurement": "inhibition at 10 µM", "setting": "KM12, Colon cancer KM12, 10 μM", "result": "< 5", "unit": "%"},
      {"measurement": "inhibition at 10 µM", "setting": "LOX IMVI, Melanoma LOX IMVI, 10 μM", "result": "< 5", "unit": "%"},
      {"measurement": "inhibition at 10 µM", "setting": "Leukemia SR, 10 μM", "result": 7.14, "unit": "%"},
      {"measurement": "inhibition at 10 µM", "setting": "MCF7, Breast cancer MCF7, 10 μM", "result": "< 5", "unit": "%"},
      {"measurement": "inhibition at 10 µM", "setting": "MDA-MB-231, Breast cancer MDA-MB-231/ATCC, 10 μM", "result": 17, "unit": "%"},
      {"measurement": "inhibition at 10 µM", "setting": "MDA-MB-435, Melanoma MDA-MB-435, 10 μM", "result": "< 5", "unit": "%"},
      {"measurement": "inhibition at 10 µM", "setting": "MDA-MB-468, Breast cancer MDA-MB-468, 10 μM", "result": "< 5", "unit": "%"},
      {"measurement": "inhibition at 10 µM", "setting": "MOLT-4, Leukemia MOLT-4, 10 μM", "result": "< 5", "unit": "%"},
      {"measurement": "inhibition at 10 µM", "setting": "Melanoma M14, 10 μM", "result": "< 5", "unit": "%"},
      {"measurement": "inhibition at 10 µM", "setting": "Melanoma MALM-3M, 10 μM", "result": 14.4, "unit": "%"},
      {"measurement": "inhibition at 10 µM", "setting": "NCI-H23, Non-small cell lung cancer NCI-H23, 10 μM", "result": "< 5", "unit": "%"},
      {"measurement": "inhibition at 10 µM", "setting": "NCI-H226, Non-small cell lung cancer NCI-H226, 10 μM", "result": 5.42, "unit": "%"},
      {"measurement": "inhibition at 10 µM", "setting": "NCI-H322M, Non-small cell lung cancer NCI-H322M, 10 μM", "result": "< 5", "unit": "%"},
      {"measurement": "inhibition at 10 µM", "setting": "NCI-H460, Non-small cell lung cancer NCI-H460, 10 μM", "result": "< 5", "unit": "%"},
      {"measurement": "inhibition at 10 µM", "setting": "NCI-H522, Non-small cell lung cancer NCI-H522, 10 μM", "result": "< 5", "unit": "%"},
      {"measurement": "inhibition at 10 µM", "setting": "NCI/ADR-RES, Ovarian cancer NCI/ADR-RES, 10 μM", "result": "< 5", "unit": "%"},
      {"measurement": "inhibition at 10 µM", "setting": "OVCAR-3, Ovarian cancer OVCAR-3, 10 μM", "result": "< 5", "unit": "%"},
      {"measurement": "inhibition at 10 µM", "setting": "OVCAR-4, Ovarian cancer OVCAR-4, 10 μM", "result": "< 5", "unit": "%"},
      {"measurement": "inhibition at 10 µM", "setting": "OVCAR-5, Ovarian cancer OVCAR-5, 10 μM", "result": "< 5", "unit": "%"},
      {"measurement": "inhibition at 10 µM", "setting": "OVCAR-8, Ovarian cancer OVCAR-8, 10 μM", "result": "< 5", "unit": "%"},
      {"measurement": "inhibition at 10 µM", "setting": "Prostate cancer PC-3, 10 μM", "result": "< 5", "unit": "%"},
      {"measurement": "inhibition at 10 µM", "setting": "RPMI-8226, Leukemia RPMI-8226, 10 μM", "result": "< 5", "unit": "%"},
      {"measurement": "inhibition at 10 µM", "setting": "RXF 393, Renal cancer RXF 393, 10 μM", "result": "< 5", "unit": "%"},
      {"measurement": "inhibition at 10 µM", "setting": "SF-268, CNS Cancer SF-268, 10 μM", "result": "< 5", "unit": "%"},
      {"measurement": "inhibition at 10 µM", "setting": "SF-295, CNS Cancer SF-295, 10 μM", "result": "< 5", "unit": "%"},
      {"measurement": "inhibition at 10 µM", "setting": "SF-539, CNS Cancer SF-539, 10 μM", "result": 7.41, "unit": "%"},
      {"measurement": "inhibition at 10 µM", "setting": "SK-MEL-2, Melanoma SK-MEL-2, 10 μM", "result": "< 5", "unit": "%"},
      {"measurement": "inhibition at 10 µM", "setting": "SK-MEL-5, Melanoma SK-MEL-5, 10 μM", "result": "< 5", "unit": "%"},
      {"measurement": "inhibition at 10 µM", "setting": "SK-MEL-28, Melanoma SK-MEL-28, 10 μM", "result": "< 5", "unit": "%"},
      {"measurement": "inhibition at 10 µM", "setting": "SK-OV-3, Ovarian cancer SK-OV-3, 10 μM", "result": 4.08, "unit": "%"},
      {"measurement": "inhibition at 10 µM", "setting": "SN12C, Renal cancer SN12C, 10 μM", "result": "< 5", "unit": "%"},
      {"measurement": "inhibition at 10 µM", "setting": "SNB-19, CNS Cancer SNB-19, 10 μM", "result": "< 5", "unit": "%"},
      {"measurement": "inhibition at 10 µM", "setting": "SNB-75, CNS Cancer SNB-75, 10 μM", "result": 17.2, "unit": "%"},
      {"measurement": "inhibition at 10 µM", "setting": "SW-620, Colon cancer SW-620, 10 μM", "result": "< 5", "unit": "%"},
      {"measurement": "inhibition at 10 µM", "setting": "T47D, Breast cancer T-47D, 10 μM", "result": 7.76, "unit": "%"},
      {"measurement": "inhibition at 10 µM", "setting": "TK-10, Renal cancer TK-10, 10 μM", "result": "< 5", "unit": "%"},
      {"measurement": "inhibition at 10 µM", "setting": "U-251, CNS Cancer U251, 10 μM", "result": "< 5", "unit": "%"},
      {"measurement": "inhibition at 10 µM", "setting": "UACC-62, Melanoma UACC-62, 10 μM", "result": 6.6, "unit": "%"},
      {"measurement": "inhibition at 10 µM", "setting": "UACC-257, Melanoma UACC-257, 10 μM", "result": "< 5", "unit": "%"},
      {"measurement": "inhibition at 10 µM", "setting": "UO-31, Renal cancer UO-31, 10 μM", "result": 39.3, "unit": "%"}
    ]}
  ]
}
